In patent US20250092383A1, “COMPOUNDS AND METHODS FOR FBXO22-MEDIATED PROTEIN DEGRADATION” (Northwestern University, priority 2023, published 2025):

Key:
[1] = target: FKBP12 (Homo sapiens, UniProt P62942); test: MS-based global proteomic analysis in A549 parental and FBXO22 knockout cells (FKBP12); type: cell-based; parameters: expressed in transfected cells; conditions: 2 μM, 24 hours
Protocol: The bar graph represents quantification of the FLAG-FKBP12/HSP90 protein content. Data are presented as the mean values±s.e.m. […] HEK293T cells expressing HA-FBXO22 were treated with 0.025-15 μM 22-SLF for 8 h. The graph represents quantification of the FLAG-FKBP12/HSP90 protein content. Data are presented as the mean values (n=2 biological independent samples). […] The bar graph represents quantification of the FLAG-FKBP12/HSP90 protein content. KO, knockout; WT, wild type. Data are presented as the mean values (n=2 biological independent samples). […] The bar graph represents quantification of the FLAG-FKBP12/HSP90 protein content. Data are presented as the mean values±s.e.m. […] The result is representative of two independent experiments with similar results. WCL, whole-cell lysate; IP, immunoprecipitate.
Data is obtained from Gene Expression Profiling Interactive Analysis (GEPIA). […] KDM4A and KDM4B are two reported substrates of FBXO22.
As an F-box protein, FBXO22 is a pivotal player in the context of tumor progression. FBXO22 has many oncogenic functions, including propelling the ubiquitination and subsequent degradation of a diverse spectrum of substrates, such as histone lysine demethylase 4 subfamily KDM4A/B, methylated p53, p21, PTEN, KLF4, and LKB1. […]

[2] = target: T1, FBXO22 (Homo sapiens, UniProt Q8NEZ5); test: Competitive cysteine-directed activity-based protein profiling (ABPP); type: binding
T1 construct: expressed in transfected cells; host or cells: HEK293T
T1 sequence (Q8NEZ5 1-403): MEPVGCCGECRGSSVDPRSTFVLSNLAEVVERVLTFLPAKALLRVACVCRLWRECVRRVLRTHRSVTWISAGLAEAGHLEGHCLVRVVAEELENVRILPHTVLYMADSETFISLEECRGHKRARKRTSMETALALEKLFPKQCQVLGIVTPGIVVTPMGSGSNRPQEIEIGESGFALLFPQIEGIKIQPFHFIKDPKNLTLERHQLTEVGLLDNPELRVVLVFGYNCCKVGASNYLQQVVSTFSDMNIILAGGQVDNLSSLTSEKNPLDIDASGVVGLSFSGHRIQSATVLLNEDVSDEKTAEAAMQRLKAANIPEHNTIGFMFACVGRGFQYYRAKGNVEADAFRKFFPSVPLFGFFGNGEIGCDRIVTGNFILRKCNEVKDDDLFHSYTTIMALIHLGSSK
Source text: FIGS. 3A-3H show FBXO22 C227 and C228 are involved in 22-SLF-mediated degradation of FKBP12. […] Among 5,650 quantified IA-DTB-modified peptides, four cysteines were identified on FBXO22 (C83, C117, C228, and C365). […] Data are presented as the mean values (n=2 biological independent samples for DMSO treatment; n=3 biological independent samples for 22-SLF Treatment). […] The bag graph represents quantification of the FLAG-FKBP12/HSP90 protein content. Data are presented as mean values (n=2 biological independent samples). […] The bar graph represents quantification of the FLAG-FKBP12/HSP90 protein content. Data are presented as the mean values (n=2 biological independent samples).
To identify the cysteine residue(s) in FBXO22 engaged with 22-SLF, HA-FBXO22-expressing HEK293T cells were treated with either DMSO or 22-SLF (2 μM, 2 hours). Using competitive cysteine-directed activity-based protein profiling (ABPP), a chemical proteomics for the measurement of target engagement, the degree of blockade of iodoacetamide-desthiobiotin (IA-DTB)-modified cysteines on FBXO22 was quantified. From a pool of 5,650 quantified IA-DTB-modified peptides, four cysteines on FBXO22 (C83, C117, C228, and C365) (FIG. 3a) were identified, with approximately 20% of FBXO22 C228 being blocked by 22-SLF treatment (FIG. 3b), indicating the potential interaction with this cysteine by 22-SLF. […]

Chain of FKBP12 (P62942 whole entry): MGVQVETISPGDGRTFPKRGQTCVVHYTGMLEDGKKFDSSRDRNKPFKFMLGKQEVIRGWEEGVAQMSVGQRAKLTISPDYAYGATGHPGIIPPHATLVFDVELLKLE

CCC(C)(C)C(=O)C(=O)N1CCCC[C@H]1C(=O)O[C@H](CCc1ccc(OC)c(OC)c1)c1cccc(OCC(=O)NCCCOCCOCCOCCCN(C(=O)CCl)C(C(=O)NCc2ccccc2)c2nc3ccccc3s2)c1 (stereo partly drawn) [22-SLF]
Selectivity of FKBP12 degradation in global proteomics [1]: selective degradation of endogenous FKBP12 in FBXO22 wildtype, but not knockout context
Blockade of IA-DTB-modified FBXO22 C228 ([2]; 2 μM, 2 hours, HA-FBXO22-expressing HEK293T cells): approximately 20%
Engagement of FBXO22 C227 ([2]; FIG. 3b): approximately 20%
